Source: patent publication US4015974A, “Amido phosphorothiolates” (priority 1972, dated 1977)

Tests used:
Type in all cases: in vivo
[1] = system: redroot pigweed (Amaranthus retroflexus); experiment: Pre-emergence application, herbicidal effect on redroot pigweed (Table 1); parameters: key: 0: not damaged; 5: completely killed; details: 20 days after application, score 0-5
Description: (§1) Seeds of barnyard grass (Echinochloa crus-galli) and large crabgrass (Digitaria sanguinalis) as representatives of grassy weeds and those of radish, redroot pigweed (Amaranthus retroflexus), common purslane (Portulaca oleracea) and common lambsquarter (Chenopodium album) as representatives of broad-leaved weeds were individually sowed in flower pots of about 10 cm. in diameter. After covering the seeds with soil, test compounds as shown in Table 1 were individually applied to the soil treatment. Thereafter the plants were grown in a green house and 20 days after application the herbicidal effects of the compounds were observed, the results of which are as shown in Table 1.
(§2) Herbicidal effects were evaluated by the numerals ranging from 0 (not damaged) to 5 (completely killed). All the test compounds were used in the form of wettable powder and diluted with water before application.

[2] = system: large crabgrass (Digitaria sanguinalis); experiment: Pre-emergence application, herbicidal effect on large crabgrass (Table 1); parameters: key: 0: not damaged; 5: completely killed; details: 20 days after application, score 0-5
Description: as §1, §2

[3] = system: common purslane (Portulaca oleracea); experiment: Pre-emergence application, herbicidal effect on common purslane (Table 1); parameters: key: 0: not damaged; 5: completely killed; details: 20 days after application, score 0-5
Description: as §1, §2

[4] = system: barnyard grass (Echinochloa crus-galli); experiment: Pre-emergence application, herbicidal effect on barnyard grass (Table 1); parameters: key: 0: not damaged; 5: completely killed; details: 20 days after application, score 0-5
Description: as §1, §2

radish = experiment: Pre-emergence application, herbicidal effect on radish (Table 1); parameters: key: 0: not damaged; 5: completely killed; details: 20 days after application, score 0-5
Description: as §1, §2

[5] = system: common lambsquarter (Chenopodium album); experiment: Pre-emergence application, herbicidal effect on common lambsquarter (Table 1); parameters: key: 0: not damaged; 5: completely killed; details: 20 days after application, score 0-5
Description: as §1, §2

[6] = system: broad-leaved weeds, e.g., monochoria, false pimpernel and toothcup; experiment: Water application, herbicidal effect on broad-leaved weeds (Table 2); parameters: key: 0: not damaged; 5: completely killed; details: 25 days, score 0-5
Description: (§3) Wagner pots of 14 cm. in diameter, which had been packed with 1.5 kg. of paddy field soil, were brought into the state of paddy fields. To the pots were transplanted rice seedlings at the 3-leave stage. Further, seeds of barnyard grass (Echinochloa crus-galli) were sowed in the pots and required amounts of test compounds were applied to the soil under water lodged condition. 25 days after application, the degrees of herbicidal activity and phytotoxity were investigated on above-mentioned plants which had been transplanted and sowed, and on broad-leaved weeds, e.g., monochoria (Monochoria viaginalis Presl.), false pimpernel (Linderna pyxidaria) and toothcup (Rotala indica Koehue), which had been spontaneously germinated. The test compounds were used in the form of wettable powder. The herbicidal effects and the phytotoxity were evaluated as follows by the numerals ranging from 0 to 5.

[7] = system: barnyard grass (Echinochloa crus-galli); experiment: Water application, herbicidal effect on barnyard grass (Table 2); parameters: key: 0: not damaged; 5: completely killed; details: 25 days, score 0-5
Description: as §3

rice = experiment: Water application, phytotoxicity on rice (Table 2); parameters: key: 0: no effect; 1: very slightly affected; 2: slightly affected; 3: moderately affected; 4: considerably affected; 5: completely killed; details: 25 days, score 0-5
Description: as §3

Row | Compound | Herbicidal effect, redroot pigweed ([1]; 10 g./a.) | Herbicidal effect, redroot pigweed ([1]; 20 g./a.) | Herbicidal effect, redroot pigweed ([1]; 40 g./a.) | Herbicidal effect, large crabgrass ([2]; 10 g./a.) | Herbicidal effect, large crabgrass ([2]; 20 g./a.) | Herbicidal effect, large crabgrass ([2]; 40 g./a.) | Herbicidal effect, common purslane ([3]; 10 g./a.) | Herbicidal effect, common purslane ([3]; 20 g./a.) | Herbicidal effect, common purslane ([3]; 40 g./a.) | Herbicidal effect, barnyard grass ([4]; 10 g./a.) | Herbicidal effect, barnyard grass ([4]; 20 g./a.) | Herbicidal effect, barnyard grass ([4]; 40 g./a.) | Herbicidal effect, radish (radish; 10 g./a.) | Herbicidal effect, radish (radish; 20 g./a.) | Herbicidal effect, radish (radish; 40 g./a.) | Herbicidal effect, common lambsquarter ([5]; 10 g./a.) | Herbicidal effect, common lambsquarter ([5]; 20 g./a.) | Herbicidal effect, common lambsquarter ([5]; 40 g./a.) | Herbicidal effects, broad-leaved weeds ([6]; 10 g/a) | Herbicidal effects, broad-leaved weeds ([6]; 20 g/a) | other results
1 | CCCOP(=O)(SCC(=O)N1CCCCC1CC)SCC(C)C (stereo not drawn) [Compound 88] | 3 | 3 | 4 | 5 | 5 | 5 | 3 | 3 | 4 | 5 | 5 | 5 | 0 | 0 | 0 | 3 | 3 | 4 | 5 | 5 | Herbicidal effects, broad-leaved weeds ([6]; 40 g/a): 5; Herbicidal effects, barnyard grass ([7]; 10 g/a): 5; Herbicidal effects, barnyard grass ([7]; 20 g/a): 5; Herbicidal effects, barnyard grass ([7]; 40 g/a): 5; Phytotoxicity on rice (rice; 10 g/a): 0; Phytotoxicity on rice (rice; 20 g/a): 0; Phytotoxicity on rice (rice; 40 g/a): 0
2 | CCOP(=O)(SCC)SCC(=O)N1CCCCC1C (stereo not drawn) [Compound 1] | 4 | 5 | 5 | 5 | 5 | 5 | 4 | 4 | 5 | 5 | 5 | 5 | 0 | 0 | 0 | 4 | 4 | 5 | 5 | 5 | Herbicidal effects, broad-leaved weeds ([6]; 40 g/a): 5; Herbicidal effects, barnyard grass ([7]; 10 g/a): 5; Herbicidal effects, barnyard grass ([7]; 20 g/a): 5; Herbicidal effects, barnyard grass ([7]; 40 g/a): 5; Phytotoxicity on rice (rice; 10 g/a): 0; Phytotoxicity on rice (rice; 20 g/a): 0; Phytotoxicity on rice (rice; 40 g/a): 0
3 | CCCCOP(=O)(SCC(=O)N1CCCCC1CC)SC(C)C (stereo not drawn) [Compound 94] | 3 | 4 | 5 | 5 | 5 | 5 | 3 | 4 | 5 | 5 | 5 | 5 | 0 | 0 | 0 | 4 | 4 | 5 | 5 | 5 | Herbicidal effects, broad-leaved weeds ([6]; 40 g/a): 5; Herbicidal effects, barnyard grass ([7]; 10 g/a): 5; Herbicidal effects, barnyard grass ([7]; 20 g/a): 5; Herbicidal effects, barnyard grass ([7]; 40 g/a): 5; Phytotoxicity on rice (rice; 10 g/a): 0; Phytotoxicity on rice (rice; 20 g/a): 0; Phytotoxicity on rice (rice; 40 g/a): 0
4 | CCOP(=O)(SCC)SCC(=O)N1CCC(C)CC1 (stereo not drawn) [Compound 100] | 4 | 4 | 5 | 5 | 5 | 5 | 3 | 4 | 5 | 4 | 5 | 5 | 0 | 0 | 1 | 3 | 4 | 5 | 5 | 5 | Herbicidal effects, broad-leaved weeds ([6]; 40 g/a): 5; Herbicidal effects, barnyard grass ([7]; 10 g/a): 5; Herbicidal effects, barnyard grass ([7]; 20 g/a): 5; Herbicidal effects, barnyard grass ([7]; 40 g/a): 5; Phytotoxicity on rice (rice; 10 g/a): 0; Phytotoxicity on rice (rice; 20 g/a): 0; Phytotoxicity on rice (rice; 40 g/a): 0
5 | CCCCOP(=O)(SCCC)SCC(=O)N1CCCCC1CC (stereo not drawn) [Compound 93] | 4 | 5 | 5 | 5 | 5 | 5 | 4 | 4 | 5 | 5 | 5 | 5 | 0 | 0 | 0 | 4 | 5 | 5 | 5 | 5 | Herbicidal effects, broad-leaved weeds ([6]; 40 g/a): 5; Herbicidal effects, barnyard grass ([7]; 10 g/a): 5; Herbicidal effects, barnyard grass ([7]; 20 g/a): 5; Herbicidal effects, barnyard grass ([7]; 40 g/a): 5; Phytotoxicity on rice (rice; 10 g/a): 0; Phytotoxicity on rice (rice; 20 g/a): 0; Phytotoxicity on rice (rice; 40 g/a): 0
